Series [1] has as its system seven well-characterised human tumor cell lines. The experiment in a line: Cytotoxicity in a panel of seven human tumor cell lines. It counts as cell-based. An excerpt:
Upon removal or transformation of the specifier V in the compounds or prodrugs disclosed in this invention, thus upon unmasking of B of the branched spacer or spacer system coupled to V, under physiological conditions, the reactive intemiediate(s) formed after self-elimination is (are) likely to be trapped by water, thereby regenerating molecules like aminodiol 23 and/or aminotriol 16. When a multiple release conjugate or prodrug constructed with one of the monomers disclosed in this invention is used for drug delivery purposes, the degradation products of the prodrug or (bio)conjugate after the multiple self-elimination cascade must be non-toxic (except from drugs to be released in tumor targeting approaches). Therefore, we have tested the aminotriol monomer 16 and aminodiol monomer 23 for their cytotoxicity in a panel of seven weul-characterized human tumor cell lines. Both compounds turned out to be non-toxic (see example 33).
Cytoxicity of multiple release spacers 16 and 23. The anti-proliferative effect of the monomeric spacers was determined in vitro applying seven well-characterised human tumor cell lines and the microculture sulphorhodamine B (SRB) test. […]

The subject of another series is M19; melanoma. The experiment in a line: SRB anti-proliferative test, M19. It counts as cell-based, human. The conditions noted are these: 5 days of incubation. As for the experimental part:
(§1) Cytoxicity of multiple release spacers 16 and 23. The anti-proliferative effect of the monomeric spacers was determined in vitro applying seven well-characterised human tumor cell lines and the microculture sulphorhodamine B (SRB) test. The anti-proliferative effects were determined and expressed as ID50 values (ng/mL), which are the (pro)drug concentrations that gave 50% inhibition of cell growth when compared to control cell growth after 5 days of incubation.

The next series relates to WIDR; colon cancer. The experiment in a line: SRB anti-proliferative test, WIDR. It counts as cell-based, human. Particulars: 5 days of incubation. Here is the method: as §1
A further series deals with IGROV; ovarian cancer. The experiment in a line: SRB anti-proliferative test, IGROV. It counts as cell-based, human. Particulars: 5 days of incubation. As for the experimental part:
as §1

In series [2] the test system is H226; non-small cell lung cancer. The experiment in a line: SRB anti-proliferative test, H226. It counts as cell-based, human. Particulars: 5 days of incubation. As for the experimental part: as §1
Another series concerns MCF-7; breast cancer. The experiment in a line: SRB anti-proliferative test, MCF-7. It counts as cell-based, human. The conditions noted are these: 5 days of incubation. Here is the method:
as §1

Another series has as its system A498; renal cancer. The experiment in a line: SRB anti-proliferative test, A498. It counts as cell-based, human. Particulars: 5 days of incubation. Here is the method:
as §1

The next series has as its system EVSA-T; breast cancer. The experiment in a line: SRB anti-proliferative test, EVSA-T. It counts as cell-based, human. The conditions noted are these: 5 days of incubation. As for the experimental part:
as §1

Series [3] in a line: Stability of reference compounds on treatment with zinc and acetic acid. It counts as physicochemical. The conditions noted are these: zinc powder, MeOH/THF/AcOH, Rt, 16 h. Here is the method:
Stability of 35. Treatment of 35 with Zinc (see FIG. 28). Dibenzyl carbonate 35 (13 mg) was dissolved in 2.5 mL MeOH/THF/AcOH (1.5/0.5/0.5). Zinc powder was added and the reaction mixture was stirred at Rt for 16 h. […] The mixture was filtered over hyflo and the residue was washed with MeOH/dichloromethane.
Stability of 36. Treatment of 36 with Zinc (see FIG. 28). Paclitaxel-2′-carbonate 36 (3 mg) was dissolved in 2.5 mL MeOH/THF/AcOH (1.5/0.5/0.5). Zinc powder was added and the reaction mixture was stirred at Rt for 16 h. […] The mixture was filtered over hyflo and the residue was washed with MeOH/dichloromethane. The filtrate was concentrated in vacuo.

Series [4] is described as follows: Release of leaving groups upon reduction of the nitro group with zinc and acetic acid (TLC, 1H-NMR). It counts as physicochemical. Here is the method:
Proof of principle for triple elimination. Formation of benzyl alcohol upon reduction of 13 (see FIG. 19). Compound 13 was dissolved in 3 mL of MeOH/AcOH/THF (1.5/0.5/1). Zinc powder was added and the reaction mixture was stirred at Rt. […] The mixture was filtered over hyflo and the residue was washed with MeOH/dichloromethane.
Proof of principle for triple elimination. Formation of phenethyl alcohol upon reduction of 14 (see FIG. 19). Compound 14 was dissolved in 3.75 mL of MeOH/AcOH/THF (2/0.75/1). Zinc powder was added and the reaction mixture was stirred at Rt. […] The mixture was filtered over hyflo and the residue was washed with MeOH/dichloromethane.
Reduction of the nitro group in 15. Failure of elimination of benzylamine (see FIG. 20). Compound 15 (16 mg) was dissolved in 10 mL of MeOH/AcOH (8/2). Zinc powder was added and the reaction mixture was stirred at Rt. […] The mixture was filtered over hyflo and the residue was washed with MeOH/dichloromethane. The filtrate was concentrated in vacuo, the mixture was freeze-dried. Under a number of varied circumstances (different deuterated solvent combinations, different pH (acidic, neutral, and basic), different buffers), ^1H-NMR did hardly show formation of free benzylamine. After 2 days, maximally 33 percent of free benzylamine was observed (^1H-NMR).
Proof of principle for double elimination. Formation of paclitaxel upon reduction of 22 (see FIG. 22). Nitrocinnamyl biscarbonate 22 was dissolved in 3.5 mL of MeOH/AcOH/THF (2/0.5/1). Zinc powder was added and the reaction mixture was stirred at Rt. […] The mixture was filtered over hyflo and the residue was washed with MeOH/dichloromethane. The filtrate was concentrated in vacuo, dioxane was added and the resulting solution was freeze-dried.
Proof of principle for quadruple elimination. Formation of paclitaxel upon reduction of 26 (see FIG. 23). Compound 26 was dissolved in 3.25 mL MeOH/AcOH/TF (1.5/0.75/1). Zinc powder was added and the reaction mixture was stirred. […] After 16 h, the mixture was filtered over hyflo and the residue was washed with MeOH/dichloromethane. […]

Where [5] appears, read: zinc powder, MeOH/AcOH(/THF), Rt.

4 compounds from patent US7705045B2, “Prodrugs built as multiple self-elimination-release spacers” (Syntarga, B.V., priority 2003, dated 2010) can be followed below.

In brackets after ≈: the same amount, converted by molar mass. Entries after “also recorded” stand apart in the source; their conditions may differ.

With `Nc1ccc(C=C(CO)CO)cc1` [Compound 23], the cytotoxicity entry in [1] is on record as “non-toxic”. In addition, the ID50 with M19; melanoma was greater than 0.0625 µg/mL; in the series on WIDR; colon cancer, greater than 0.0625 µg/mL; with IGROV; ovarian cancer, greater than 0.0625 µg/mL; in series [2] it was 0.042406 µg/mL (≈ 0.237 µM); with MCF-7; breast cancer, greater than 0.0625 µg/mL; with A498; renal cancer, 0.056784 µg/mL (≈ 0.317 µM). Also, in the series on EVSA-T; breast cancer, the ID50 was greater than 0.0625 µg/mL.
For “2′-O-cinnamyloxycarbonylpaclitaxel [Compound 36]”, in [3], the “stability on treatment with zinc and acetic acid (TLC, 1H-NMR)” value is reported as “did not show any degradation; also recorded: no formation of new compounds”.
Consider `O=C(NCc1ccccc1)OCc1ccc([N+](=O)[O-])cc1` [Compound 34], for which the “release of leaving groups by 1H-NMR” value in series [4] (after reduction with zinc/acetic acid) was “complete release of free benzylamine”. For the same compound, in series [4] (setting [5]), the “formation of free leaving group by thin layer chromatography” value is “formation of a substantial amount of benzylamine” and the “time to disappearance of starting compound (thin layer chromatography)” value is 100 min.
In the case of `O=C(OCc1ccccc1)OCc1ccccc1` [Compound 35, Dibenzyl carbonate], the “stability on treatment with zinc and acetic acid (TLC, 1H-NMR)” value in [3] is “did not show any degradation; also recorded: no formation of new compounds”.
